One test concerns KB/HeLa. Kind of test: XTT proliferation assay, KB/HeLa. Format: cell-based. As to conditions: Homo sapiens, read-out: XTT Proliferationsassay, EC50 KB/Hela. From the text:
(§1) Die Substanzen 1,2, 4-6 wurden in einem Proliferationstest an etablierten Tumorzelllinien auf ihre anti-proliferative Aktivität hin untersucht (D.A. Scuderio et al. Cancer Res. 1988, 48, 4827-4833). Der verwendete Test bestimmt die zelluläre Dehydrogenase-Aktivität und ermöglicht eine Bestimmung der Zellvitalität und indirekt der Zellzahl. Bei den verwendeten Zelllinien handelt es sich um die humane Cervixkarzinom Zelllinie KB/HeLa (ATCC CCL17), die ovariale Adenokarzinomzelllinie SKOV-3 (ATCC HTB77), die humane Glioblastom Zelllinie SF-268 (NCI 503138) und die Lungenkarzinom Zelllinie NCI-H460 (NCI 503473). Des weiteren wurde zur Untersuchung der Zellzyklus-spezifischen Wirkung der Substanz ein RKOp27 Zellsystem verwendet (M. Schmidt et al. Oncogene19(20):2423-9, 2000). Bei RKO handelt es sich um eine humane Kolonkarzinomlinie, in der der Zellzyklusinhibitor p27 ^kip1 mittels des Ecdyson Expressionssystems induziert zur Expression gebracht und zu einem Zellzyklusarrest spezifisch in G2 geführt werden kann. Eine unspezifisch wirkende Substanz hemmt die Proliferation unabhängig davon, ob die RKO Zelle in G1 oder G2 arretiert ist oder nicht. Zellzyklus-spezifische Substanzen wie beispielsweise Tubulininhibitoren sind hingegen nur dann zytotoxisch, wenn Zellen nicht arretiert sind und der Zellzyklus durchlaufen wird. In Tabelle 1 ist die zytotoxische bzw. wachstumshemmende Aktivität der beschriebenen Verbindungen mit / ohne Expression von p27^kip1gezeigt. Die getesteten Verbindungen zeigten im induzierten Zustand von p27^kiP1 keine zytotoxische Aktivität. Die Ergebnisse zeigen eine sehr potente Hemmung der Proliferation ausgewählter Tumorzelllinien durch die genannten Substanzen.
In general terms: Tetrazolium assays rely on reduction of a dye to a coloured formazan, in cell work by metabolically active cells.

Another test concerns SKOV-3. The test is described as follows: XTT proliferation assay, SKOV-3. Format: cell-based. Particulars: Homo sapiens, SK-OV-3; read-out: XTT Proliferationsassay, EC50 SKOV3.
Excerpt: as §1

Another test has as its system SF-268. The test is described as follows: XTT proliferation assay, SF-268. Format: cell-based. Particulars: Homo sapiens, read-out: XTT Proliferationsassay, EC50 SF-268.
Excerpt: as §1

The next test deals with NCI-H460. The test is described as follows: XTT proliferation assay, NCI-H460. Format: cell-based. Particulars: Homo sapiens, read-out: XTT Proliferationsassay, EC50 NCI-H460.
Excerpt: as §1

The next test concerns RKOp27. The test is described as follows: XTT proliferation assay, RKOp27 cell system with / without induced p27kip1 expression. Format: cell-based. Particulars: Homo sapiens.
Excerpt: as §1

Another test has as its system HT29. The test is described as follows: XTT proliferation assay, HT29. Format: cell-based, human. As to conditions: for EC50: Homo sapiens, HT-29, HT29, read-out: XTT Proliferationsassay, EC50 HT29.
Excerpt: as §1, with “Substanzen. Tabelle 1:” for “Substanzen.”
(§2) Zur weiteren Charakterisierung wurden die Substanzen 1-6 an einem Panel von 7 humanen Tumorzelllinien auf ihre anti-proliferative Wirkung hin untersucht. Bei den untersuchten Zelllinien handelt es sich um die humanen Glioma Zelllinien A172 (ATCC CRL-1620) und U118 (ATCC HTB-15), die humane Lungenkarzinom Zelllinie A549, das humane epidermoide Karzinom A431 (ATCC CRL-2592), die humanen Prostatakarzinom Zelllinien DU145 (ATCC HTB-81) und PC3 (ATCC CRL-1435) und die humane Kolon Adenokarzinomzelllinie HT29 (ATCC HTB-38). Es handelt sich hierbei um sehr gut charakterisierte, etablierte Zelllinien, die von ATCC, ECACC bzw. NCI erhalten und in Kultur genommen wurden. Die in Tab. […]

Another test concerns A549. Kind of test: XTT proliferation assay, A549. Format: cell-based, human. Particulars: for EC50: Homo sapiens, A549, A549, read-out: XTT Proliferationsassay, EC50 A549.
Excerpt: as §1, with “Substanzen. Tabelle 1:” for “Substanzen.”
as §2

For the next test, the system named is A431. The test is described as follows: XTT proliferation assay, A431. Format: cell-based, human. Particulars: for EC50: Homo sapiens, A-431, A431, read-out: XTT Proliferationsassay, EC50 A431.
Excerpt: as §1, with “Substanzen. Tabelle 1:” for “Substanzen.”
as §2

The next test relates to DU145. Kind of test: XTT proliferation assay, DU145. Format: cell-based, human. As to conditions: for EC50: Homo sapiens, DU-145, DU145, read-out: XTT Proliferationsassay, EC50 DU145.
Excerpt: as §1, with “Substanzen. Tabelle 1:” for “Substanzen.”
as §2

A further test deals with PC3. Kind of test: XTT proliferation assay, PC3. Format: cell-based, human. As to conditions: for EC50: Homo sapiens, PC-3, PC3, read-out: XTT Proliferationsassay, EC50 PC3.
Excerpt: as §1, with “Substanzen. Tabelle 1:” for “Substanzen.”
as §2

In the next test the test system is A172. Kind of test: XTT proliferation assay, A172. Format: cell-based, human. Particulars: for EC50: Homo sapiens, A 172, A172, read-out: XTT Proliferationsassay, EC50 A172.
Excerpt: as §1, with “Substanzen. Tabelle 1:” for “Substanzen.”
as §2

The subject of a further test is LT12. Kind of test: XTT proliferation assay, LT12 (wild type). Format: cell-based. As to conditions: Rattus norvegicus, LT12; read-out: XTT Proliferationsassay, EC50 LT12.
Excerpt: as §1, with “Substanzen. Tabelle 1:” for “Substanzen.”
(§3) Zur weiteren Charakterisierung wurden die Substanzen 1,2,4-6 gegenüber multi drug resistenten Zelllinien im Vergleich zu den nicht-resistenten Wildtypzelllinien untersucht.
(§4) Bei den untersuchten Zelllinien handelt es sich um die murine L1210, die akute myeloische Leukaemie Zelllinie LT12 und um die resistenten Linien L1210/mdr und LT12/mdr. Außerdem wurden die murine P388 Zelllinie (methyl-cholanthreneinduced lymphoid neoplasm) sowie die Doxorubicin-resistente P388 als Testsysteme herangezogen.

A further test relates to LT12mdr. The test is described as follows: XTT proliferation assay, LT12mdr (resistant). Format: cell-based. Particulars: read-out: XTT Proliferationsassay, EC50 LT12mdr.
Excerpt: as §1, with “Substanzen. Tabelle 1:” for “Substanzen.”
as §3, §4

For a further test, the system named is L1210. Kind of test: XTT proliferation assay, L1210 (wild type). Format: cell-based, murine. Particulars: Mus musculus, L1210; read-out: XTT Proliferationsassay, EC50 L1210.
Excerpt: as §1, with “Substanzen. Tabelle 1:” for “Substanzen.”
as §3, §4

In a further test the test system is L1210VCR. The test is described as follows: XTT proliferation assay, L1210VCR (resistant). Particulars: Mus musculus; read-out: XTT Proliferationsassay, EC50 L1210VCR. Format: cell-based, murine.
Excerpt: as §1, with “Substanzen. Tabelle 1:” for “Substanzen.”
as §3, §4

In the next test the test system is P388. Kind of test: XTT proliferation assay, P388 (wild type). Format: cell-based, murine. Particulars: Mus musculus, P388; read-out: XTT Proliferationsassay, EC50 P388.
Excerpt: as §1, with “Substanzen. Tabelle 1:” for “Substanzen.”
as §3, §4

The test system of a further test is P388ADR. Kind of test: XTT proliferation assay, P388ADR (doxorubicin-resistant). Format: cell-based, murine. Particulars: Mus musculus, P388/ADR; read-out: XTT Proliferationsassay, EC50 P388ADR.
Excerpt: as §1, with “Substanzen. Tabelle 1:” for “Substanzen.”
as §3, §4

A further test relates to Rindertubulin. Kind of test: Inhibition of tubulin polymerisation in vitro. Format: biochemical, Rind. As to conditions: Tubulin with 30% MAPs, mean of two independent experiments. From the text:
In diesem Test wird durch Zyklen von Polymerisation und Depolymerisation aufgereinigtes Tubulin eingesetzt, welches durch Zugabe von GTP und Erwärmung zur Polymerisation gebracht wird. […]

A further test has as its system U118MG. Kind of test: XTT proliferation assay, U118MG. Format: cell-based. Particulars: Homo sapiens, U-118-MG; read-out: XTT Proliferationsassay, EC50 U118MG.
Excerpt: as §1, with “Substanzen. Tabelle 1:” for “Substanzen.”
as §2

Where [1] appears, read: RKOP27, without expression of p27kip1, read-out: XTT Proliferationsassay, EC50 RKOP27.
Setting [2] is: RKOP27 ind., p27kip1 expression induced (cells arrested), read-out: XTT Proliferationsassay, EC50 RKOP27 ind.

In brackets after ≈: the same amount, converted by molar mass. Structures can show the parent of a compound that is named as a salt. Where two headings read alike, the source gives them in different places.

In the case of `Cc1ccc2cc(NC(=O)C(=O)c3cn(Cc4ccc(Cl)cc4)c4ccccc34)ccc2n1` [Verbindung 1, 2-[1-(4-Chlor-benzyl)-1 H-indol-3-yl]-N-(2-methyl-chinolin-6-yl)-2-oxo-acetamid, reference compound], the EC50 is 0.183 µg/mL (≈ 0.403 µM) in the test on KB/HeLa; 0.174 µg/mL (≈ 0.383 µM) in the test with SKOV-3; 0.261 µg/mL (≈ 0.575 µM) in the test on SF-268; 0.344 µg/mL (≈ 0.758 µM) in the test on NCI-H460; 0.23 µg/mL (≈ 0.507 µM) with RKOp27 (setting [1]); greater than 3.16 µg/mL in the test on RKOp27 (setting [2]). Besides, the EC50 came out at 0.266 µg/mL (≈ 0.586 µM) in the test with HT29; 0.304 µg/mL (≈ 0.67 µM) in the test on A549; 0.076 µg/mL (≈ 0.167 µM) with A431; 0.329 µg/mL (≈ 0.725 µM) in the test with DU145; 0.199 µg/mL (≈ 0.438 µM) in the test with PC3; 0.165 µg/mL (≈ 0.363 µM) with A172. For the same compound, the EC50 in the test on LT12 is 0.133 µg/mL (≈ 0.293 µM); with LT12mdr it was 0.218 µg/mL (≈ 0.48 µM); in the test on L1210, 0.233 µg/mL (≈ 0.513 µM); with L1210VCR it was 0.304 µg/mL (≈ 0.67 µM); in the test with P388, 0.13 µg/mL (≈ 0.286 µM); with P388ADR, 0.212 µg/mL (≈ 0.467 µM). Besides, the “Hemmung der Tubulin-Polymerisation, EC50” value in the test with Rindertubulin (listed as 1 (V)) was determined as 1.16 µg/mL.

Turning to `Cc1ccc2cc(NC(=O)C(=O)c3cn(Cc4ccc(Cl)cc4)c4ccccc34)ccc2n1` [Verbindung 3, 6-{2-[1-(4-Chlor-benzyl)-1 H-indol-3-yl]-2-oxo-acetylamino}-2-methyl-chinolin Hydrochlorid, reference compound], the “XTT Proliferationsassay, EC50 HT29” value in the test on HT29 (HT29, listed as 3 (V)) was found to be 0.219 µg/mL. The “XTT Proliferationsassay, EC50 A549” value in the test with A549 (A549, listed as 3 (V)) was found to be 0.405 µg/mL. The “XTT Proliferationsassay, EC50 A431” value in the test on A431 (A431, listed as 3 (V)) came to 0.075 µg/mL. The “XTT Proliferationsassay, EC50 DU145” value in the test with DU145 (DU145, listed as 3 (V)) was 0.426 µg/mL. In the test with PC3 (PC3, listed as 3 (V)), the “XTT Proliferationsassay, EC50 PC3” value is 0.165 µg/mL. The “XTT Proliferationsassay, EC50 A172” value in the test on A172 (A172, listed as 3 (V)) worked out at 0.171 µg/mL. Besides, in the test with U118MG, the EC50 was 0.142 µg/mL.

On to `O=C(Nc1ccc2[nH]ncc2c1)C(=O)c1cn(Cc2ccc(Cl)cc2)c2ccccc12` [Verbindung 6, 2-[1-(4-Chlor-benzyl)-1H-indol-3-yl]-N-(1H-indazol-5-yl)-2-oxo-acetamid], for which the EC50 is 0.335 µg/mL (≈ 0.781 µM) in the test with KB/HeLa; 0.144 µg/mL (≈ 0.336 µM) with SKOV-3; greater than 3.16 µg/mL in the test with SF-268; 0.233 µg/mL (≈ 0.543 µM) in the test with NCI-H460; 0.148 µg/mL (≈ 0.345 µM) with RKOp27 (setting [1]); greater than 3.16 µg/mL in the test on RKOp27 (setting [2]). The EC50 with HT29 turned out to be 0.059 µg/mL (≈ 0.138 µM); in the test on A549, 0.323 µg/mL (≈ 0.753 µM); in the test with A431 it was 0.07 µg/mL (≈ 0.163 µM); in the test with DU145 it was 0.506 µg/mL (≈ 1.18 µM); in the test on PC3, 0.093 µg/mL (≈ 0.217 µM); with A172, 0.342 µg/mL (≈ 0.797 µM). For the same compound, the EC50 is 0.097 µg/mL (≈ 0.226 µM) in the test with U118MG; 0.084 µg/mL (≈ 0.196 µM) in the test with LT12; 0.093 µg/mL (≈ 0.217 µM) in the test on LT12mdr; 0.246 µg/mL (≈ 0.574 µM) in the test on L1210; 0.241 µg/mL (≈ 0.562 µM) in the test with L1210VCR; 0.175 µg/mL (≈ 0.408 µM) in the test on P388. Further, in the test on P388ADR, the EC50 worked out at 0.231 µg/mL (≈ 0.539 µM). The “Hemmung der Tubulin-Polymerisation, EC50” value in the test with Rindertubulin amounted to 1.26 µg/mL.

As to `O=C1c2c(O)ccc(O)c2C(=O)c2c(NCCNCCO)ccc(NCCNCCO)c21` [mitoxantron, reference compound], the EC50 in the test with P388ADR was determined as 0.608 µg/mL (≈ 1.37 µM).

As for `CC[C@]1(O)C[C@H]2CN(CCc3c([nH]c4ccccc34)[C@@](C(=O)OC)(c3cc4c(cc3OC)N(C=O)[C@H]3[C@@](O)(C(=O)OC)[C@H](OC(C)=O)[C@]5(CC)C=CCN6CC[C@]43[C@@H]65)C2)C1` [vincristine, reference compound], the “Hemmung der Tubulin-Polymerisation, EC50” value in the test on Rindertubulin was found to be 0.35 µg/mL.
